These compounds were tested against BCL2 (Homo sapiens (Human), UniProt P10415) (assay: Molecular level activity test of anti-apoptotic protein BCL2 (HTRF, binding to Bim peptide)). Details: HTRF, binding of BCL2 to Bim peptide; read-out: BCL2 nM (inhibitory activity, IC50).
Procedure, shortened: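 Step one: compound, supplied in 2% DMSO, is mixed with His-tagged BCL2 and biotinylated Bim peptide and reacted for 1 h. Step two: anti-His and streptavidin-XL665 reagents in detection buffer are added. Step three: after a 4 h room-temperature incubation, time-resolved fluorescence is measured.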

Chain of BCL2 (P10415 whole entry): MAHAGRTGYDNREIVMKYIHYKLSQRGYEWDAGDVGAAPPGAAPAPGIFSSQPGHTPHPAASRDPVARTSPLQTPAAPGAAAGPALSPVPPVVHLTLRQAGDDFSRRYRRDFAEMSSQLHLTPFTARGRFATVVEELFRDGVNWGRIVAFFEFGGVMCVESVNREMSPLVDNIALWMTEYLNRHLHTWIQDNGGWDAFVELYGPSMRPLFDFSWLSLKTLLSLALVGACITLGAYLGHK

Q: `COc1ccc(CN2CCN(C3CC4(CCN(c5cc(Oc6cnc7[nH]ccc7c6)c(C(=O)NS(=O)(=O)c6ccc(NCC7(F)CCOCC7)c([N+](=O)[O-])c6)cc5F)CC4)C3)C(c3ccccc3C(C)C)C2)cc1` (stereo not shown) [compound 066, 2-((1H-pyrrolo[2,3-b]pyrid-5-yl)oxy)-5-fluoro-N-((4-(((4-fluorotetrahydro-2H-pyran-4-yl)methyl)amino)-3-nitrophenyl)sulfonyl)-4-(2-(2-(2-isopropylphenyl)-4-(4-methoxybenzyl)piperazin-1-yl)-7-azaspiro[3.5]non-7-yl)benzamide] was tested. Which IC50 did it give?
A: The IC50 was < 10 nM.

Q: For `CC(C)c1ccccc1[C@@H]1CN(Cc2cccc(F)c2F)CCN1C1CC2(CCN(c3cc(Oc4cnc5[nH]ccc5c4)c(C(=O)NS(=O)(=O)c4ccc(NC[C@H]5CC[C@](C)(O)CC5)c([N+](=O)[O-])c4)cc3F)CC2)C1` [compound 218, 2-((1H-pyrrolo[2,3-b]pyrid-5-yl)oxy)-4-(2-((R)-4-(2,3-difluorobenzyl)-2-(2-isopropylphenyl)piperazin-1-yl)-7-azaspiro[3.5]non-7-yl)-5-fluoro-N-((4-((((1r, 4r)-4-hydroxy-4-methylcyclohexyl)methyl)amino)-3-nitrophenyl)sulfonyl)benzamide], which IC50 is on record?
A: The IC50 was < 10 nM.

Q: Which IC50 does the source give for `CC(C)c1ccccc1[C@@H]1CN(Cc2ccc(C3CC3)cc2)CCN1C1CC2(CCN(c3cc(Oc4cnc5[nH]ccc5c4)c(C(=O)NS(=O)(=O)c4ccc(NC[C@H]5CC[C@](C)(O)CC5)c([N+](=O)[O-])c4)cc3F)CC2)C1` [compound 219, 2-((1H-pyrrolo[2,3-b]pyrid-5-yl)oxy)-4-(2-((R)-4-(4-cyclopropylbenzyl)-2-(2-isopropylphenyl)piperazin-1-yl)-7-azaspiro[3.5]non-7-yl)-5-fluoro-N-((4-((((1r, 4r)-4-hydroxy-4-methylcyclohexyl)methyl)amino)-3-nitrophenyl)sulfonyl)benzamide] here?
A: The IC50 was < 10 nM.

Q: `COc1cc(CN2CCN(C3CC4(CCN(c5cc(Oc6cnc7[nH]ccc7c6)c(C(=O)NS(=O)(=O)c6ccc(NC[C@H]7CC[C@](C)(O)CC7)c([N+](=O)[O-])c6)cc5F)CC4)C3)[C@H](c3ccccc3C(C)C)C2)ccc1C1CC1` [compound 220, 2-((1H-pyrrolo[2,3-b]pyrid-5-yl)oxy)-4-(2-((R)-4-(4-cyclopropyl-3-methoxybenzyl)-2-(2-isopropylphenyl)piperazin-1-yl)-7-azaspiro[3.5]non-7-yl)-5-fluoro-N-((4-((((1r, 4r)-4-hydroxy-4-methylcyclohexyl)methyl)amino)-3-nitrophenyl)sulfonyl)benzamide] was tested. Which IC50 did it give?
A: Its IC50 is < 10 nM.

Q: With `COc1ccc(CN2CCN(C3CC4(CCN(c5cc(Oc6cnc7[nH]ccc7c6)c(C(=O)NS(=O)(=O)c6ccc(NC[C@H]7CC[C@](C)(O)CC7)c([N+](=O)[O-])c6)cc5F)CC4)C3)[C@H](c3ccccc3C(C)C)C2)cc1OC` [compound 221, 2-((1H-pyrrolo[2,3-b]pyrid-5-yl)oxy)-4-(2-((R)-4-(3,4-dimethoxybenzyl)-2-(2-isopropylphenyl)piperazin-1-yl)-7-azaspiro[3.5]non-7-yl)-5-fluoro-N-((4-((((1r, 4r)-4-hydroxy-4-methylcyclohexyl)methyl)amino)-3-nitrophenyl)sulfonyl)benzamide] as the compound, how does the IC50 read?
A: Its IC50 is < 10 nM.

Q: How did the IC50 turn out when `COc1ccc(CN2CCN(C3CC4(CCN(c5cc(Oc6cnc7[nH]ccc7c6)c(C(=O)NS(=O)(=O)c6ccc(NC[C@H]7CC[C@](C)(O)CC7)c([N+](=O)[O-])c6)cc5F)CC4)C3)[C@H](c3ccccc3C(C)C)C2)c2c1OCO2` [compound 223, 2-((1H-pyrrolo[2,3-b]pyrid-5-yl)oxy)-5-fluoro-N-((4-((((1r, 4r)-4-hydroxy-4-methylcyclohexyl)methyl)amino)-3-nitrophenyl)sulfonyl)-4-(2-((R)-2-(2-isopropylphenyl)-4-((7-methoxybenzo[d][1,3]dioxycyclopent-4-yl)methyl)piperazin-1-yl)-7-azaspiro[3.5]non-7-yl)benzamide] was run?
A: The IC50 was < 10 nM.

Q: Which IC50 does the source give for `COc1cc(CN2CCN(C3CC4(CCN(c5cc(Oc6cnc7[nH]ccc7c6)c(C(=O)NS(=O)(=O)c6ccc(NC[C@H]7CC[C@](C)(O)CC7)c([N+](=O)[O-])c6)cc5F)CC4)C3)[C@H](c3ccccc3C(C)C)C2)cc2cc(C)oc12` [compound 225, 2-((1H-pyrrolo[2,3-b]pyrid-5-yl)oxy)-5-fluoro-N-((4-((((1r, 4r)-4-hydroxy-4-methylcyclohexyl)methyl)amino)-3-nitrophenyl)sulfonyl)-4-(2-((R)-2-(2-isopropylphenyl)-4-((7-methoxy-2-methylbenzofuran-5-yl)methyl)piperazin-1-yl)-7-azaspiro[3.5]non-7-yl)benzamide] here?
A: The IC50 was < 10 nM.

Q: For `COc1ccc(CN2CCN(C3CC4(CCN(c5cc(Oc6cnc7[nH]ccc7c6)c(C(=O)NS(=O)(=O)c6ccc(NC[C@H]7CC[C@](C)(O)CC7)c([N+](=O)[O-])c6)cc5F)CC4)C3)[C@H](c3ccccc3C(C)C)C2)c2c1OCCO2` [compound 228, 2-((1H-pyrrolo[2,3-b]pyrid-5-yl)oxy)-5-fluoro-N-((4-((((1r, 4r)-4-hydroxy-4-methylcyclohexyl)methyl)amino)-3-nitrophenyl)sulfonyl)-4-(2-((R)-2-(2-isopropylphenyl)-4-((8-methoxy-2,3-dihydrobenzo[b][1,4]dioxan-5-yl)methyl)piperazin-1-yl)-7-azaspiro[3.5]non-7-yl)benzamide], which IC50 is on record?
A: The IC50 was < 10 nM.

Q: How did the IC50 turn out when `CC(C)c1ccccc1[C@@H]1CN(Cc2cnn(C)c2)CCN1C1CC2(CCN(c3cc(Oc4cnc5[nH]ccc5c4)c(C(=O)NS(=O)(=O)c4ccc(NC[C@H]5CC[C@](C)(O)CC5)c([N+](=O)[O-])c4)cc3F)CC2)C1` [compound 229, 2-((1H-pyrrolo[2,3-b]pyrid-5-yl)oxy)-5-fluoro-N-((4-((((1r, 4r)-4-hydroxy-4-methylcyclohexyl)methyl)amino)-3-nitrophenyl)sulfonyl)-4-(2-((R)-2-(2-isopropylphenyl)-4-((1-methyl-1H-pyrazole-4-yl)methyl)piperazin-1-yl)-7-azaspiro[3.5]non-7-yl)benzamide] was run?
A: Its IC50 is < 10 nM.

Q: How did the IC50 turn out when `CC(C)c1ccccc1[C@@H]1CN(Cc2cnn(C(C)C)c2)CCN1C1CC2(CCN(c3cc(Oc4cnc5[nH]ccc5c4)c(C(=O)NS(=O)(=O)c4ccc(NC[C@H]5CC[C@](C)(O)CC5)c([N+](=O)[O-])c4)cc3F)CC2)C1` [compound 230, 2-((1H-pyrrolo[2,3-b]pyrid-5-yl)oxy)-5-fluoro-N-((4-((((1r, 4r)-4-hydroxy-4-methylcyclohexyl)methyl)amino)-3-nitrophenyl)sulfonyl)-4-(2-((R)-4-((1-isopropyl-1H-pyrazole-4-yl)methyl)-2-(2-isopropylphenyl)piperazin-1-yl)-7-azaspiro[3.5]non-7-yl)benzamide] was run?
A: The IC50 was < 10 nM.

Q: For `CC(C)c1ccccc1[C@@H]1CN(Cc2ccncc2)CCN1C1CC2(CCN(c3cc(Oc4cnc5[nH]ccc5c4)c(C(=O)NS(=O)(=O)c4ccc(NC[C@H]5CC[C@](C)(O)CC5)c([N+](=O)[O-])c4)cc3F)CC2)C1` [compound 231, 2-((1H-pyrrolo[2,3-b]pyrid-5-yl)oxy)-5-fluoro-N-((4-((((1r, 4r)-4-hydroxy-4-methylcyclohexyl)methyl)amino)-3-nitrophenyl)sulfonyl)-4-(2-((R)-2-(2-isopropylphenyl)-4-(pyrid-4-ylmethyl)piperazin-1-yl)-7-azaspiro[3.5]non-7-yl)benzamide], which IC50 is on record?
A: The IC50 was < 10 nM.

Q: With `CC(C)c1ccccc1[C@@H]1CN(Cc2cccnc2)CCN1C1CC2(CCN(c3cc(Oc4cnc5[nH]ccc5c4)c(C(=O)NS(=O)(=O)c4ccc(NC[C@H]5CC[C@](C)(O)CC5)c([N+](=O)[O-])c4)cc3F)CC2)C1` [compound 232, 2-((1H-pyrrolo[2,3-b]pyrid-5-yl)oxy)-5-fluoro-N-((4-((((1r, 4r)-4-hydroxy-4-methylcyclohexyl)methyl)amino)-3-nitrophenyl)sulfonyl)-4-(2-((R)-2-(2-isopropylphenyl)-4-(pyrid-3-ylmethyl)piperazin-1-yl)-7-azaspiro[3.5]non-7-yl)benzamide] as the compound, how does the IC50 read?
A: Its IC50 is < 10 nM.

Q: For `CC(C)c1ccccc1[C@@H]1CN(Cc2ccccn2)CCN1C1CC2(CCN(c3cc(Oc4cnc5[nH]ccc5c4)c(C(=O)NS(=O)(=O)c4ccc(NC[C@H]5CC[C@](C)(O)CC5)c([N+](=O)[O-])c4)cc3F)CC2)C1` [compound 233, 2-((1H-pyrrolo[2,3-b]pyrid-5-yl)oxy)-5-fluoro-N-((4-((((1r, 4r)-4-hydroxy-4-methylcyclohexyl)methyl)amino)-3-nitrophenyl)sulfonyl)-4-(2-((R)-2-(2-isopropylphenyl)-4-(pyrid-2-ylmethyl)piperazin-1-yl)-7-azaspiro[3.5]non-7-yl)benzamide], which IC50 is on record?
A: The IC50 was < 10 nM.

Q: For “(S)-2-((1H-pyrrolo[2,3-b]pyrid-5-yl)oxy)-N-(7-(((4-fluorotetrahydro-2H-pyran-4-yl)methyl)amino)-6-nitro-1H-benzo[d]imidazol-4-yl)sulfonyl)-4-(2-(2-(2-isopropylphenyl)pyrrolidin-1-yl)-7-azaspiro[3.5]non-7-yl)benzamide [compound 005]”, which IC50 is on record?
A: The IC50 was < 10 nM.

Q: How did the IC50 turn out when “(S)-2-((1H-pyrrolo[2,3-b]pyrid-5-yl)oxy)-N-((7-(((4-fluoro-1-(oxocyclobut-3-yl)piperid-4-yl)methyl)amino)-6-nitro-1H-benzo[d]imidazol-4-yl)sulfonyl)-4-(2-(2-(2-isopropylphenyl)pyrrolidin-1-yl)-7-azaspiro[3.5]non-7-yl)benzamide [compound 003]” was run?
A: The IC50 was < 10 nM.

Each compound was assayed against BCL-XL (Homo sapiens (Human), UniProt Q07817) (assay: BCL-XL enzyme molecular level activity test (HTRF, binding to BIM peptide)). Details: binding of BCL-XL to BIM peptide, values in nM, read-out: BCL-XL inhibitory activity (IC50).
Procedure: In a white shallow 384-well plate, a total reaction volume was 10 μL. Specifically, it included 2 μL of the compound to be tested (2% DMSO), […] His-tagged recombinant protein, and 4 μL Biotin-tagged BIM protein peptide. After 1 hour of reaction, 5 μL of each Anti-His and streptavidin-tagged XL665 antibody diluents diluted with a detection buffer were added. After incubating at room temperature for 4 hours, the values were read using the Envision multifunctional microplate reader to detect the effect of the compound to be tested on the binding ability of BCL-XL to BIM protein peptides. The Envision parameter settings were exciting light at 320 nm, and emitting light at 615 nm and 665 nm. The binding ability of anti-apoptotic proteins to Bim protein peptides was indirectly reflected by the signal ratio of 665 nm and 615 nm. In the reaction, background wells without BCL2 and active wells for full binding of recombinant proteins without compounds and Bim protein peptides were set up.

Chain of BCL-XL (Q07817 whole entry): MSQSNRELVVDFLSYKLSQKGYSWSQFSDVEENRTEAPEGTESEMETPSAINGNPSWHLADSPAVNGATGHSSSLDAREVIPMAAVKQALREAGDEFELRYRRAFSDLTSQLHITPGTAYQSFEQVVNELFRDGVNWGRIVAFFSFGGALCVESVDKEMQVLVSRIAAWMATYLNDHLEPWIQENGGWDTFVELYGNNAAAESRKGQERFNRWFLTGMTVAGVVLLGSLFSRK

Q: How did the IC50 turn out when `COc1ccc(CN2CCN(C3CC4(CCN(c5cc(Oc6cnc7[nH]ccc7c6)c(C(=O)NS(=O)(=O)c6ccc(NCC7(F)CCOCC7)c([N+](=O)[O-])c6)cc5F)CC4)C3)C(c3ccccc3C(C)C)C2)cc1` (stereo not shown) [compound 066, 2-((1H-pyrrolo[2,3-b]pyrid-5-yl)oxy)-5-fluoro-N-((4-(((4-fluorotetrahydro-2H-pyran-4-yl)methyl)amino)-3-nitrophenyl)sulfonyl)-4-(2-(2-(2-isopropylphenyl)-4-(4-methoxybenzyl)piperazin-1-yl)-7-azaspiro[3.5]non-7-yl)benzamide] was run?
A: The IC50 was > 500 nM.

— patent US20250034135A1, “ANTI-APOPTOTIC PROTEIN BCL-2 INHIBITOR, PHARMACEUTICAL COMPOSITION AND USES THEREOF” (HANGZHOU HEALZEN THERAPEUTICS CO., LTD., priority 2021, published 2025)
